Reference: ChEMBL document CHEMBL4507278 (2021)

Assays:
Settings in all cases: Compound concentration 1000.0 nM
[1] = target: Bone morphogenetic protein receptor type-1A (Homo sapiens) (UniProt P36894)
[2] = target: Rho-associated protein kinase 2 (Homo sapiens) (UniProt O75116)
[3] = target: Dual specificity mitogen-activated protein kinase kinase 7 (Homo sapiens) (UniProt O14733)
[4] = target: Serine/threonine-protein kinase OSR1 (Homo sapiens) (UniProt O95747)
[5] = target: Dual specificity testis-specific protein kinase 1 (Homo sapiens) (UniProt Q15569)
[6] = target: ALK tyrosine kinase receptor (Homo sapiens) (UniProt Q9UM73)
Sequence of ALK tyrosine kinase receptor (Homo sapiens) (Q9UM73 19-1620 limits assumed): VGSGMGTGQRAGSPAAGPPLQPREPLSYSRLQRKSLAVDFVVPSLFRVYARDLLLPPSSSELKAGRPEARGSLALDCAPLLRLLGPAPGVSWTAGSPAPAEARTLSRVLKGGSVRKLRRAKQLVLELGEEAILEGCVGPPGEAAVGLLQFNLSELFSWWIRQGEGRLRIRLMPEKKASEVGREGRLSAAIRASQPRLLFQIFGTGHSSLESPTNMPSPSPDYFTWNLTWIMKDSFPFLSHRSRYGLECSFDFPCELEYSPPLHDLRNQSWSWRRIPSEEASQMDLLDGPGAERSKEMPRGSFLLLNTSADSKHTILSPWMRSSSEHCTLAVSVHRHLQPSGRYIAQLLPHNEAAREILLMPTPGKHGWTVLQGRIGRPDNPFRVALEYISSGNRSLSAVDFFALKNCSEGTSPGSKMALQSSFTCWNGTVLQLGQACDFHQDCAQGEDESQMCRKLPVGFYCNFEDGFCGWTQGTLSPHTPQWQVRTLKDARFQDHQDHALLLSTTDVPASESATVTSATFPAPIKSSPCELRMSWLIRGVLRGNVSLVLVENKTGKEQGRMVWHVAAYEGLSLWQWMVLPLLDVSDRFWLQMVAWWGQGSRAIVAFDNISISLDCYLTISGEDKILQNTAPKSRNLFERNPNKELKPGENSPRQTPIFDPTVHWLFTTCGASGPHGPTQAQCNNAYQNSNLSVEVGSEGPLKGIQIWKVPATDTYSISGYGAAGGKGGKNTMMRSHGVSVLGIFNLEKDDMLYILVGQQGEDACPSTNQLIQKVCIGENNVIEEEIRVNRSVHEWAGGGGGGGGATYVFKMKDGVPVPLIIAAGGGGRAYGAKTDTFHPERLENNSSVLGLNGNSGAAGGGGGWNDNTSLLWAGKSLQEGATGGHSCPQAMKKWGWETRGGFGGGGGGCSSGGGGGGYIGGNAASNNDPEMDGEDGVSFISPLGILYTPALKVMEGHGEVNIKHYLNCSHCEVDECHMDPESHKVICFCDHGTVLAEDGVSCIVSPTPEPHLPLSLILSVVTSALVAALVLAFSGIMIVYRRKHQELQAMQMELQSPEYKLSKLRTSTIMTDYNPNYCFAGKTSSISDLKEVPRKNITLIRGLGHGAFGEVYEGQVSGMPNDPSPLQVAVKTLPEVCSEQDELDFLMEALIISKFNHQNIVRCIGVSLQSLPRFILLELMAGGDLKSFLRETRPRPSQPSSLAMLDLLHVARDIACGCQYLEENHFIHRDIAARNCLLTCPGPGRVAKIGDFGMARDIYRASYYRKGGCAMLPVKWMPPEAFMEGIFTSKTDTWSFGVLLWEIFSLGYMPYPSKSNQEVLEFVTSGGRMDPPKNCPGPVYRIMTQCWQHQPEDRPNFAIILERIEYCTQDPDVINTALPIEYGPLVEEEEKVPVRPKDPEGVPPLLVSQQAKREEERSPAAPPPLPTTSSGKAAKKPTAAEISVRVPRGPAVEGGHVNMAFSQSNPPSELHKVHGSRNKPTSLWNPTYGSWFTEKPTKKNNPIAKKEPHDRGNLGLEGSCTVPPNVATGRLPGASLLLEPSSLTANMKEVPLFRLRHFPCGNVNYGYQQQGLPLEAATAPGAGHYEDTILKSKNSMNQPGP

[7] = target: Serine/threonine-protein kinase Chk1 (Homo sapiens) (UniProt O14757)
[8] = target: NUAK family SNF1-like kinase 1 (Homo sapiens) (UniProt O60285)
[9] = target: Phosphatidylinositol 5-phosphate 4-kinase type-2 beta (Homo sapiens) (UniProt P78356)
Sequence of Phosphatidylinositol 5-phosphate 4-kinase type-2 beta (Homo sapiens) (P78356 whole entry): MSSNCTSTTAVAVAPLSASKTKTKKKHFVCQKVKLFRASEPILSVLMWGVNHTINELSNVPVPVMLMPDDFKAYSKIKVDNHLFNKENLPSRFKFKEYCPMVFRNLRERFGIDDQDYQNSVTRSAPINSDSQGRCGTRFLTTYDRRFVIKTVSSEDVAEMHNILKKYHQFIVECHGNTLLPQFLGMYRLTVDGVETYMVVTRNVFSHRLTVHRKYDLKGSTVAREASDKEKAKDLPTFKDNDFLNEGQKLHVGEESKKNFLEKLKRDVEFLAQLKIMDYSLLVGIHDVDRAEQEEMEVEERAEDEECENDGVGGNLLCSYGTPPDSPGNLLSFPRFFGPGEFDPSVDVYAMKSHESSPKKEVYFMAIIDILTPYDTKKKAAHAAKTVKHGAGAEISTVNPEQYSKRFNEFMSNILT

[10] = target: Serine/threonine-protein kinase TAO2 (Homo sapiens) (UniProt Q9UL54)
[11] = target: Ribosomal protein S6 kinase alpha-3 (Homo sapiens) (UniProt P51812)
[12] = target: Phosphatidylinositol 5-phosphate 4-kinase type-2 gamma (Homo sapiens) (UniProt Q8TBX8)
[13] = target: RAC-gamma serine/threonine-protein kinase (Homo sapiens) (UniProt Q9Y243)
[14] = target: Mitogen-activated protein kinase kinase kinase kinase 2 (Homo sapiens) (UniProt Q12851)
Sequence of Mitogen-activated protein kinase kinase kinase kinase 2 (Homo sapiens) (Q12851 whole entry): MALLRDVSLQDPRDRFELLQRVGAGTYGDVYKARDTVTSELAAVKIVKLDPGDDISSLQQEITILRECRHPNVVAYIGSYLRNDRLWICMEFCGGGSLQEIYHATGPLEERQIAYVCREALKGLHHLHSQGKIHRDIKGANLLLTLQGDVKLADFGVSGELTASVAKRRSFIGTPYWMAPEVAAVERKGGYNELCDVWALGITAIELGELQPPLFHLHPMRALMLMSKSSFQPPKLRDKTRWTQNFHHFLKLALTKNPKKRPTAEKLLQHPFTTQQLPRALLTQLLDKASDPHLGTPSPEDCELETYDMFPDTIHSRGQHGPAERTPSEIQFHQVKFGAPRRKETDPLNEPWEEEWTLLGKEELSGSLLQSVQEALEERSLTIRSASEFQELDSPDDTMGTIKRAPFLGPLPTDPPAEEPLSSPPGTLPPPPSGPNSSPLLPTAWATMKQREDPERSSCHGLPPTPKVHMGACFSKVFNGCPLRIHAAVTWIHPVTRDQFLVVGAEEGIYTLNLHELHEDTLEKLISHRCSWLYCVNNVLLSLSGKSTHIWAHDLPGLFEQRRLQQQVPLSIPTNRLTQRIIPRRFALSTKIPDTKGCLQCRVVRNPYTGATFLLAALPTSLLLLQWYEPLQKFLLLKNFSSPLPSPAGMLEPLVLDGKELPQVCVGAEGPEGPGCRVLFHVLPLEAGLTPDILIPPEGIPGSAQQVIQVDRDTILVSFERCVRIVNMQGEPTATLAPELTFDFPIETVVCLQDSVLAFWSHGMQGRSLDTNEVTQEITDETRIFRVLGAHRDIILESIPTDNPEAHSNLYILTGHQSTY

[15] = target: Atypical kinase COQ8B, mitochondrial (Homo sapiens) (UniProt Q96D53)
[16] = target: Serine/threonine-protein kinase SIK1 (Homo sapiens) (UniProt P57059)
[17] = target: Cyclin-dependent kinase-like 5 (Homo sapiens) (UniProt O76039)
[18] = target: Uncharacterized serine/threonine-protein kinase SBK3 (Homo sapiens) (UniProt P0C264)
Sequence of Uncharacterized serine/threonine-protein kinase SBK3 (Homo sapiens) (P0C264 whole entry): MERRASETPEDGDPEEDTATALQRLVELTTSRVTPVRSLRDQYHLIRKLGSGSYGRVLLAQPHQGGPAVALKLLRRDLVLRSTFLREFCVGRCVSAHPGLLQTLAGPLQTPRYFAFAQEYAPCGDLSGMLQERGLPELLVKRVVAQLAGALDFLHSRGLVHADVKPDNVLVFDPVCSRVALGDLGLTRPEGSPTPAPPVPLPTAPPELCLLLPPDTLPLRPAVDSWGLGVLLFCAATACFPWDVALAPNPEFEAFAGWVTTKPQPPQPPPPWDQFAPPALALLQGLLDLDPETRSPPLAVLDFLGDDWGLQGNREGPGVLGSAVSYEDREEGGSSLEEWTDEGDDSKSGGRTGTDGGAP

[19] = target: Serine/threonine-protein kinase TBK1 (Homo sapiens) (UniProt Q9UHD2)
[20] = target: Ephrin type-B receptor 2 (Homo sapiens) (UniProt P29323)
[21] = target: Serine/threonine-protein kinase Sgk1 (Homo sapiens) (UniProt O00141)
[22] = target: Aurora kinase A (Homo sapiens) (UniProt O14965)
[23] = target: Inhibitor of nuclear factor kappa-B kinase subunit epsilon (Homo sapiens) (UniProt Q14164)
[24] = target: Serine/threonine-protein kinase DCLK1 (Homo sapiens) (UniProt O15075)
[25] = system: Tyrosine-protein kinase ABL1 (Homo sapiens), P00519 [T315I]
[26] = target: MAP/microtubule affinity-regulating kinase 3 (Homo sapiens) (UniProt P27448)
[27] = target: Activin receptor type-1 (Homo sapiens) (UniProt Q04771)
[28] = system: Mast/stem cell growth factor receptor Kit (Homo sapiens), P10721 [V559D]
[29] = target: Mitogen-activated protein kinase kinase kinase 14 (Homo sapiens) (UniProt Q99558)
[30] = target: Non-receptor tyrosine-protein kinase TNK1 (Homo sapiens) (UniProt Q13470)
[31] = target: Cyclin-dependent kinase 9 (Homo sapiens) (UniProt P50750)
[32] = target: STE20-like serine/threonine-protein kinase (Homo sapiens) (UniProt Q9H2G2)
[33] = target: Wee1-like protein kinase 2 (Homo sapiens) (UniProt P0C1S8)
[34] = target: Receptor tyrosine-protein kinase erbB-4 (Homo sapiens) (UniProt Q15303)
[35] = target: Activin receptor type-1B (Homo sapiens) (UniProt P36896)
[36] = target: Rho-associated protein kinase 1 (Homo sapiens) (UniProt Q13464)
[37] = target: Maternal embryonic leucine zipper kinase (Homo sapiens) (UniProt Q14680)
[38] = target: Bone morphogenetic protein receptor type-1B (Homo sapiens) (UniProt O00238)
[39] = target: Serine/threonine-protein kinase BRSK2 (Homo sapiens) (UniProt Q8IWQ3)
[40] = system: Receptor-type tyrosine-protein kinase FLT3 (Homo sapiens), P36888 [UNDEFINED MUTATION]
[41] = target: Serine/threonine-protein kinase 24 (Homo sapiens) (UniProt Q9Y6E0)
[42] = target: Vascular endothelial growth factor receptor 1 (Homo sapiens) (UniProt P17948)
[43] = target: RAC-alpha serine/threonine-protein kinase (Homo sapiens) (UniProt P31749)
[44] = target: Serine/threonine-protein kinase MARK2 (Homo sapiens) (UniProt Q7KZI7)
[45] = target: Mitogen-activated protein kinase 15 (Homo sapiens) (UniProt Q8TD08)
Sequence of Mitogen-activated protein kinase 15 (Homo sapiens) (Q8TD08 whole entry): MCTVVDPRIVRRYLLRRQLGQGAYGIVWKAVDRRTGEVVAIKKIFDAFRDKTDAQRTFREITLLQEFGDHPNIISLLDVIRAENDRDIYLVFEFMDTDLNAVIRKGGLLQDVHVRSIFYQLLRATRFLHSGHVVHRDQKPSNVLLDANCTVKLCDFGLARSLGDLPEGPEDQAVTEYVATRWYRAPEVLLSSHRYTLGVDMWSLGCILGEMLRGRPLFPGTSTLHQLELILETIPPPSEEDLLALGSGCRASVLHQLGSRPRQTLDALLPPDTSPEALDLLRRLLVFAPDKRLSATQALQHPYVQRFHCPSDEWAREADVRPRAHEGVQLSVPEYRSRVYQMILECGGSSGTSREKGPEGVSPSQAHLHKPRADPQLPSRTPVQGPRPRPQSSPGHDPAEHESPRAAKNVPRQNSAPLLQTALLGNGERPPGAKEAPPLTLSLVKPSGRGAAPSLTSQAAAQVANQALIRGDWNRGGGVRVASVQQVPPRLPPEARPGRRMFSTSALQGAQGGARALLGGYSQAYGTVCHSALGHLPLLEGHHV

Sequence of Dual specificity mitogen-activated protein kinase kinase 7 (Homo sapiens) (O14733 whole entry): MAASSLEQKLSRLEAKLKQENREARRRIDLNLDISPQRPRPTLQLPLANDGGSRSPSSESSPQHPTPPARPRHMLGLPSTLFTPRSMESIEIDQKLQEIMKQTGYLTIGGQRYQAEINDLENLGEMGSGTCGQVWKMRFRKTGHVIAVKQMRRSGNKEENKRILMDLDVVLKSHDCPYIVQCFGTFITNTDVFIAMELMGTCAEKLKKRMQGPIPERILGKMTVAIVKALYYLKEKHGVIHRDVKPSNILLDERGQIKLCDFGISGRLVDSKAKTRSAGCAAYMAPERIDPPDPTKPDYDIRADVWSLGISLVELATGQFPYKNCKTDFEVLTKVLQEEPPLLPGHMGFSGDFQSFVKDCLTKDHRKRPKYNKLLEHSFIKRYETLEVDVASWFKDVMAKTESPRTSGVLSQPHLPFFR
Sequence of Serine/threonine-protein kinase OSR1 (Homo sapiens) (O95747 2-527 limits assumed): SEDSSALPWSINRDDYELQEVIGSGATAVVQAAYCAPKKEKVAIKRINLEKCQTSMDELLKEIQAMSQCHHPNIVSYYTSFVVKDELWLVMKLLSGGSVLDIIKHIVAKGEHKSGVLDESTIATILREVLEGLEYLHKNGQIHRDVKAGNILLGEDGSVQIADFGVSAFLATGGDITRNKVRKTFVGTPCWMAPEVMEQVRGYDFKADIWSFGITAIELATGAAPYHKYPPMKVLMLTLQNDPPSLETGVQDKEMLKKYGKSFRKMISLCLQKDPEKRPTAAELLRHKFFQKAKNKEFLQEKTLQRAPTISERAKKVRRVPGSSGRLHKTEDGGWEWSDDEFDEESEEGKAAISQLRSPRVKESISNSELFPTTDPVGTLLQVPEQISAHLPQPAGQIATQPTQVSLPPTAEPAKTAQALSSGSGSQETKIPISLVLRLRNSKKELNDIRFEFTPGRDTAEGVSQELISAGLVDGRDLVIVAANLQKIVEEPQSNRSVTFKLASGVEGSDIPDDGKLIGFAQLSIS

Work on `CS(=O)(=O)NCC[C@H](NC(=O)c1cncc2c1cnn2-c1ccc(F)cc1)c1ccnc(S(C)(=O)=O)c1` [BI 9307] yielded a residual activity [1] of 92%, a residual activity [2] of 100% and a residual activity [3] of 100%. It also gave a residual activity [4] of 88%, a residual activity [5] of 100% and a residual activity [6] of 100%. The residual activity [7] was 97%, the residual activity [8] was 85% and the residual activity [9] was 100%. It also gave a residual activity [10] of 85%, a residual activity [11] of 100% and a residual activity [12] of 0%. The residual activity [13] was 93%, the residual activity [14] was 91% and the residual activity [15] was 100%. It also gave a residual activity [16] of 100%, a residual activity [17] of 100% and a residual activity [18] of 100%. The residual activity [19] was 94%, the residual activity [20] was 92% and the residual activity [21] was 100%. It also gave a residual activity [22] of 100%, a residual activity [23] of 78% and a residual activity [24] of 94%. The residual activity [25] was 100%, the residual activity [26] was 92% and the residual activity [27] was 100%. It also gave a residual activity [28] of 100%, a residual activity [29] of 100% and a residual activity [30] of 100%. It also gave a residual activity [31] of 100%, a residual activity [32] of 100% and a residual activity [33] of 100%. For the same molecule, the residual activity [34] was 95%, the residual activity [35] was 100% and the residual activity [36] was 100%. The residual activity [37] was 99%, the residual activity [38] was 100% and the residual activity [39] was 77%. It also gave a residual activity [40] of 92%, a residual activity [41] of 100% and a residual activity [42] of 90%. For the same molecule, the residual activity [43] was 100%, the residual activity [44] was 75% and the residual activity [45] was 100%.

`CS(=O)(=O)c1cc(C2(NC(=O)c3cncc4c3cnn4-c3ccc(F)cc3)CC2)ccn1` [BI 639667] showed a residual activity [1] of 100%, a residual activity [2] of 75% and a residual activity [3] of 91%. It also gave a residual activity [4] of 85%, a residual activity [5] of 62% and a residual activity [6] of 100%. It also gave a residual activity [7] of 100%, a residual activity [8] of 91% and a residual activity [9] of 100%. The residual activity [10] was 97%, the residual activity [11] was 99% and the residual activity [12] was 100%. For the same molecule, the residual activity [13] was 96%, the residual activity [14] was 100% and the residual activity [15] was 100%. The residual activity [16] was 100%, the residual activity [17] was 89% and the residual activity [18] was 100%. The residual activity [19] was 94%, the residual activity [20] was 100% and the residual activity [21] was 97%. It also gave a residual activity [22] of 89%, a residual activity [23] of 100% and a residual activity [24] of 75%. For the same molecule, the residual activity [25] was 73%, the residual activity [26] was 100% and the residual activity [27] was 100%. It also gave a residual activity [28] of 100%, a residual activity [29] of 61% and a residual activity [30] of 80%. For the same molecule, the residual activity [31] was 91%, the residual activity [32] was 100% and the residual activity [33] was 100%. The residual activity [34] was 100%, the residual activity [35] was 100% and the residual activity [36] was 79%. It also gave a residual activity [37] of 100%, a residual activity [38] of 82% and a residual activity [39] of 84%. For the same molecule, the residual activity [40] was 100%, the residual activity [41] was 82% and the residual activity [42] was 100%. It also gave a residual activity [43] of 100%, a residual activity [44] of 100% and a residual activity [45] of 100%.
